Measurements reported in patent EP0776896A1, “Heterocyclic compounds and their use” (priority 1995, dated 1997).
Like-named read-outs stand apart in the source and are kept apart here.

How the values were obtained:
[1] = molecular target: T1, muscarinic receptors (M1-site, pirenzepine sensitive site) (Rattus norvegicus, UniProt P08482); assay: Inhibition of ^3HPRZ (pirenzepine) binding to rat cerebral cortex membranes; parameters: species or system male Wistar rats; conditions: 1.0 nM ^3HPRZ, 60 min at 20°C
T1 construct: Fresh cortex (0.1-1 9) from male Wistar rats (150-200 g) is homogenized; from tissue; host or cells: rat cerebral cortex membranes
T1 sequence (P08482 1-460): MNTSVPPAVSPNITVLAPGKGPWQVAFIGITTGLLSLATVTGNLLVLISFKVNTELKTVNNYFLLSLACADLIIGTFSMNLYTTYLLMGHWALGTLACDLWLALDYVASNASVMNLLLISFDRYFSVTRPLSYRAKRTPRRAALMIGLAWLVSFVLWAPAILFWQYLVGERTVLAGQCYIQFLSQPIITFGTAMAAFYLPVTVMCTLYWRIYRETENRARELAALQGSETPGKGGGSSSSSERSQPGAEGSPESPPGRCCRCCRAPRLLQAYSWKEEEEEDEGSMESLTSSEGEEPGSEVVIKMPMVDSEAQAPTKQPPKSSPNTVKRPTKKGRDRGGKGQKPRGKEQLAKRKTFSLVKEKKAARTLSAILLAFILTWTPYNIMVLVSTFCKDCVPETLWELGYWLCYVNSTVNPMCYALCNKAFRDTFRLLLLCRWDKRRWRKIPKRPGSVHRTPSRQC
Experimental: Furthermore the pharmacological properties of the compounds of the invention can also be illustrated by determining their capability to inhibit ^3HPRZ (pirenzepine, [N-methyl^-3H]) binding to rat cerebral cortex membranes.
Pirenzepine binds selectively to subtype of muscarinic receptors. Historically the type is named the M1-site, whereas pirenzepine sensitive site would be more appropriate. Although selective for M1-sites pirenzepine also interact with M2-sites.
(§1) All preparations are performed at 0-4°C unless otherwise indicated. Fresh cortex (0.1-1 9) from male Wistar rats (150-200 g) is homogenized for 5-10 s in 10 mL 20 mM Hepes pH: 7.4, with an Ultra-Turrax homogenizer. The homogenizer is rinsed with 2 x 10 mL of buffer and the combined suspension centrifuged for 15 min. at 40,000 x g. The pellet is washed three times with buffer. In each step the pellet is homogenized as before in 3 x 10 mL of buffer and centrifuged for 10 min. at 40,000 x g.
The final pellet is homogenized in 20 mM Hepes pH: 7.4 (100 mL per g of original tissue) and used for binding assay. Aliquots of 0.5 mL is added 20 µL of test solution and 25 µL of ^3HPRZ (1.0 nM, final conc.), mixed and incubated for 60 min. at 20°C. Non-specific binding is determined in triplicate using atropine (1.0 µg/mL, final conc.) as the test substance. After incubation samples are added 5 mL of ice-cold buffer and poured directly onto Whatman GF/C glass fiber filters under suction and immediately washed 2 times with 5 mL of ice-cold buffer. The amount of radioactivity on the filters are determined by conventional liquid scintillation counting. Specific binding is total binding minus non-specific binding.
Test substances are dissolved in 10 mL water, at a concentration of 0.22 mg/mL. 25-75% inhibition of specific binding must be obtained before calculation of IC50.
The test value will be given as IC50 (the concentration (nM) of the test substance which inhibits the specific binding of ^3HPRZ by 50%). IC50 = (applied test substance concentration) x(Cx/Co-Cx)nM where Co is specific binding in control assays and Cx is the specific binding in the test assay. (The calculations assume normal mass-action kinetics).

[2] = molecular target: muscarinic acetylcholine receptors; assay: Inhibition of specific binding of ^3H-Oxotremorine-M to rat cortex homogenate; parameters: species or system male Wistar rats; conditions: 1.0 nM ^3H-Oxotremorine, 30 min at 25°C, read-out: ^3H-Oxo-M IC50
Excerpt: The pharmacological properties of the compounds of the invention can be illustrated by determining their capability to inhibit the specific binding of ^3H-Oxotremorine-M (^3H-Oxo). Birdsdall N.J.M., Hulme E.C., and Burgen A.S.V. (1980). "The Character of Muscarinic Receptors in Different Regions of the Rat Brain". Proc. Roy. Soc. London (Series B) 207,1.
^3H-Oxo labels muscarinic receptor in the CNS (with a preference for agonist domains of the receptors). Three different sites are labeled by ^3H-Oxo. […] Using the present experimental conditions only the high and medium affinity sites are determined.
The inhibitory effects of compounds on ^3H-oxo binding reflects the affinity for muscarinic acetylcholine receptors.
as §1, with “g)” for “9)”, “(150-250” for “(150-200”, “[…]” for “mM”, “with” for “with 2 x”, “2” for “3”
The final pellet is homogenized in 20 mM Hepes pH: 7.4 (100 mL per g of original tissue) and used for binding assay. Aliquots of 0.5 mL is added 25 µL of test solution and 25 µL of ^3H-Oxotremorine (1.0 nM, final concentration) mixed and incubated for 30 min. at 25°C. Non-specific binding is determined in triplicate using arecoline (1 µg/mL, final concentration) as the test substance. After incubation samples are added 5 mL of ice-cold buffer and poured directly onto Whatman GF/C glass fiber filters under suction and immediately washed 2 times with 5 mL of ice-cold buffer. The amount of radioactivity on the filters are determined by conventional liquid scintillation counting. Specific binding is total binding minus non specific binding.
Test substances are dissolved in 10 mL water (if necessary heated on a steam-bath for less than 5 min.) at a concentration of 2.2 mg/mL. 25-75% inhibition of specific binding must be obtained before calculation of IC50. The test value will be given as IC50 (the concentration (nM) of the test substance which inhibits the specific binding of ^3H-oxo by 50%). IC50 = (applied test substance concentration) x(Cx/Co-Cx)nM where Co is specific binding in control assays and Cx is the specific binding in the test assay. (The calculations assume normal mass-action kinetics).

| Compound | IC50 ([1]; read-out: ^3HPRZ IC50) [nM] | IC50 [2] [nM] | IC50 ([1]; ^3HPRZ IC50,nM) [nM] |
| --- | --- | --- | --- |
| CCCCOc1nsnc1C1CC2CCC1NC2 (single isomer, unassigned) [Compound 4, ENDO 2-aza-6-(4-butyloxy-1,2,5-thiadiaz-3-yl)-bicyclo[2.2.2]octane] | 17 | 4.2 |  |
| CCCCOc1nsnc1C1CC2CCC1NC2 (single isomer, unassigned) [Compound 5, EXO 2-aza-6-(4-butyloxy-1,2,5-thiadiaz-3-yl)bicyclo[2.2.2]octane] | 139 | 143 |  |
| CCCCCCOc1nsnc1C1CC2CCC1N(C)C2 (single isomer, unassigned) [Compound 7, ENDO 2-Aza-6-(4-hexyloxy-1,2,5-thiadiaz-3-yl)-2-methylbicyclo[2.2.2]octane] | 21 |  |  |
| CCCCCCOc1nsnc1C1CC2CCC1N(C)C2 (single isomer, unassigned) [Compound 8, EXO 2-Aza-6-(4-hexyloxy-1,2,5-thiadiaz-3-yl)-2-methylbicyclo[2.2.2]octane] | 58 |  |  |
| CCCCSc1nsnc1C1CC2CCC1NC2 (stereo not drawn) [Compound 9, ENDO 2-aza-6-(4-butylthio-1,2,5-thiadiaz-3-yl)bicyclo[2.2.2]octane] | 2.7 | 2 |  |
| CCCSc1nsnc1C1CC2CCC1NC2 (stereo not drawn) [Compound 11, ENDO 2-Aza-6-(4-propylthio-1,2,5-thiadiaz-3-yl)bicyclo[2.2.2]octane] | 13 | 4.1 |  |
| CCCOc1nsnc1C1CC2CCC1NC2 (stereo not drawn) [Compound 13, EXO 2-Aza-6-(4-propoxy-1,2,5-thiadiaz-3-yl)bicyclo[2.2.2]octane] | 172 | 263 |  |
| CSc1nsnc1C1CC2CCC1NC2 (stereo not drawn) [Compound 14, EXO 2-Aza-6-(4-methylthio-1,2,5-thiadiaz-3-yl)bicyclo[2.2.2]octane] | 365 | 685 |  |
| CCCCCSc1nsnc1C1CC2CCC1NC2 (stereo not drawn) [Compound 15, ENDO 2-aza-6-(4-thiopentyl-1,2,5-thiadiaz-3-yl)bicyclo[2.2.2]octane] |  | 3.4 | 5 |
| CCCCCSc1nsnc1C1CC2CCC1NC2 (stereo not drawn) [Compound 16, EXO 2-aza-6-(4-pentylthio-1,2,5-thiadiaz-3-yl)-bicyclo[2.2.2]octane] |  | 83 | 45 |
| CC(C)CCCSc1nsnc1C1CC2CCC1NC2 (stereo not drawn) [Compound 17] | 170 |  |  |
| CC(C)CCCSc1nsnc1C1CC2CCC1NC2 (stereo not drawn) [Compound 18, ENDO 2-Aza-6-(4-((4-methylpentyl)thio)-1,2,5-thiadiaz-3-yl)bicyclo[2.2.2]octane] | 13 |  |  |
| CSc1nsnc1C1CC2CCC1NC2 (stereo not drawn) [Compound 19] | 128 | 18 |  |
| FC(F)(F)CCCSc1nsnc1C1CC2CCC1NC2 (stereo not drawn) [Compound 20, ENDO 2-Aza-6-(4-((4,4,4-trifluorobutyl)thio)-1,2,5-thiadiaz-3-yl)-bicyclo[2.2.2]octane] | 5.5 |  |  |
| FC(F)(F)c1ccc(CSc2nsnc2C2CC3CCC2NC3)cc1 (stereo not drawn) [Compound 22, EXO 2-Aza-6-(4-(((4-trifluoromethyl)phenyl)methylthio)-1,2,5-thiadiaz-3-yl)-bicyclo[2.2.2]octane] | 444 |  |  |
| N#Cc1ccc(CSc2nsnc2C2CC3CCC2NC3)cc1 (stereo not drawn) [Compound 23, ENDO 2-Aza-6-(4-((4-cyanophenyl)methylthio)-1,2,5-thiadiaz-3-yl)-bicyclo[2.2.2]octane] |  | 26 | 36 |
| N#Cc1ccc(CSc2nsnc2C2CC3CCC2NC3)cc1 (stereo not drawn) [Compound 24, EXO 2-Aza-6-(4-((4-cyanophenyl)methylthio)-1,2,5-thiadiaz-3-yl)-bicyclo[2.2.2]octane] |  | 60 | 91 |
| N#Cc1ccc(CSc2nsnc2C2CC3CCC2NC3)s1 (stereo not drawn) [Compound 25, ENDO 2-Aza-6-(4-((5-cyanothien-2-yl)methylthio)-1,2,5-thiadiaz-3-yl)-bicyclo[2.2.2]octane] | 6.2 |  |  |
| N#Cc1ccc(CSc2nsnc2C2CC3CCC2NC3)s1 (stereo not drawn) [Compound 26, EXO 2-Aza-6-(4-((5-cyanothien-2-yl)methylthio)-1,2,5-thiadiaz-3-yl)-bicyclo[2.2.2]octane] | 20 |  |  |
| CCCCCCSc1nsnc1C1CC2CCC1NC2 (stereo not drawn) [Compound 27, EXO 2-Aza-6-(4-hexylthio-1,2,5-thiadiaz-3-yl)bicyclo[2.2.2]octane] | 2.3 |  |  |
| CCCCCCSc1nsnc1C1CC2CCC1NC2 (stereo not drawn) [Compound 28, EXO 2-Aza-6-(4-hexylthio-1,2,5-thiadiaz-3-yl)bicyclo[2.2.2]octane] | 62 |  |  |
| CCCCCOc1nsnc1C1CC2CCC1NC2 (stereo not drawn) [Compound 30, ENDO 2-aza-6-(4-pentoxy-1,2,5-thiadiaz-3-yl)-bicyclo[2.2.2]octane] | 15 |  |  |
| CCCCCOc1nsnc1C1CC2CCC1NC2 (stereo not drawn) [Compound 31, EXO 2-aza-6-(4-pentoxy-1,2,5-thiadiaz-3-yl)bicyclo[2.2.2]octane] | 80 |  |  |
| FC(F)(F)c1ccc(COc2nsnc2C2CC3CCC2NC3)cc1 (stereo not drawn) [Compound 32, EXO 2-Aza-6-(4-((4-trifluoromethylphenyl)methoxy)-1,2,5-thiadiaz-3-yl)-bicyclo[2.2.2]octane] | 244 |  |  |
| FC(F)(F)c1ccc(COc2nsnc2C2CC3CCC2NC3)cc1 (stereo not drawn) [Compound 33, EXO 2-Aza-6-(4-((4-trifluoromethylphenyl)methoxy)-1,2,5-thiadiaz-3-yl)-bicyclo[2.2.2]octane] | 273 |  |  |
